In PMC5218480 (PLoS ONE, 2017):

System: MV-4-11 cells
Assay: Gene expression microarray analysis (Affymetrix PrimeView) and GSEA
Format: cell-based, human
Parameters: RFU PODN (11730768_x_at) / Fold change /veh PODN (11730768_x_at) / RFU LINC00158 (11744669_a_at) / Fold change /veh LINC00158 (11744669_a_at) / RFU DUSP10 (11751237_a_at) / Fold change /veh DUSP10 (11751237_a_at) / RFU ID3 (11757404_x_at) / Fold change /veh ID3 (11757404_x_at) / RFU PLEKHG5 (11737974_s_at) / Fold change /veh PLEKHG5 (11737974_s_at) / RFU LRRC4B (11730491_at) / Fold change /veh LRRC4B (11730491_at) / RFU GIMAP4 (11747438_a_at) / Fold change /veh GIMAP4 (11747438_a_at) / RFU KRT8 (11758183_x_at) / Fold change /veh KRT8 (11758183_x_at) / RFU CNN1 (11734310_a_at) / Fold change /veh CNN1 (11734310_a_at) / RFU VPS37D (11726825_at) / Fold change /veh VPS37D (11726825_at) / RFU C10orf10 (11716522_x_at) / Fold change /veh C10orf10 (11716522_x_at) / RFU KIR2DL2 /// KIR2DL4 /// KIR2DL5A /// KIR2DL5B /// KIR2DS1 /// KIR2DS2 /// KIR2DS3 /// KIR2DS4 /// KIR3DL3 /// KIR3DL3 /// KIR3DS1 (11738374_at) / Fold change /veh KIR2DL2 /// KIR2DL4 /// KIR2DL5A /// KIR2DL5B /// KIR2DS1 /// KIR2DS2 /// KIR2DS3 /// KIR2DS4 /// KIR3DL3 /// KIR3DL3 /// KIR3DS1 (11738374_at) / RFU C1QL1 (11718748_at) / Fold change /veh C1QL1 (11718748_at) / RFU TMPRSS4 (11747572_a_at) / Fold change /veh TMPRSS4 (11747572_a_at) / RFU HAMP (11756126_x_at) / Fold change /veh HAMP (11756126_x_at) / RFU RNFT2 (11725882_a_at) / Fold change /veh RNFT2 (11725882_a_at) / RFU NR4A2 (11747474_a_at) / Fold change /veh NR4A2 (11747474_a_at) / RFU ABCC12 (11746883_a_at) / Fold change /veh ABCC12 (11746883_a_at) / RFU TMEM136 (11760407_x_at) / Fold change /veh TMEM136 (11760407_x_at) / RFU CLDN22 /// WWC2 (11732394_at) / Fold change /veh CLDN22 /// WWC2 (11732394_at) / RFU HLA-DPB1 (11760878_x_at) / Fold change /veh HLA-DPB1 (11760878_x_at) / RFU SPINT1 (11716480_a_at) / Fold change /veh SPINT1 (11716480_a_at) / RFU GAP43 (11754022_s_at) / Fold change /veh GAP43 (11754022_s_at) / RFU A4GNT (11735810_at) / Fold change /veh A4GNT (11735810_at) / RFU PRB3 (11715151_x_at) / Fold change /veh PRB3 (11715151_x_at) / RFU TUBB4B (11761932_at) / Fold change /veh TUBB4B (11761932_at) / RFU CAPN14 (11732068_a_at) / Fold change /veh CAPN14 (11732068_a_at) / RFU TMCC2 (11721928_a_at) / Fold change /veh TMCC2 (11721928_a_at) / RFU IRGQ (11745062_a_at) / Fold change /veh IRGQ (11745062_a_at) / RFU FAM174B (11720279_a_at) / Fold change /veh FAM174B (11720279_a_at) / RFU TMPRSS4 (11748680_a_at) / Fold change /veh TMPRSS4 (11748680_a_at) / RFU FAM212B (11763350_a_at) / Fold change /veh FAM212B (11763350_a_at) / RFU PLEKHG5 (11743358_a_at) / Fold change /veh PLEKHG5 (11743358_a_at) / RFU ZSCAN30 (11745921_a_at) / Fold change /veh ZSCAN30 (11745921_a_at) / RFU CMKLR1 (11741424_a_at) / Fold change /veh CMKLR1 (11741424_a_at) / RFU LOC101060620 /// MAPK8IP1 (11723275_at) / Fold change /veh LOC101060620 /// MAPK8IP1 (11723275_at) / RFU SPTSSB (11747773_x_at) / Fold change /veh SPTSSB (11747773_x_at) / RFU PRSS12 (11739890_at) / Fold change /veh PRSS12 (11739890_at) / RFU BIN1 (11741810_x_at) / Fold change /veh BIN1 (11741810_x_at) / RFU WNT11 (11732464_a_at) / Fold change /veh WNT11 (11732464_a_at) / RFU C10orf10 (11716521_a_at) / Fold change /veh C10orf10 (11716521_a_at) / RFU C5orf56 (11738089_at) / Fold change /veh C5orf56 (11738089_at) / RFU CYB561 (11721691_x_at) / Fold change /veh CYB561 (11721691_x_at) / RFU ANKRD19P (11752326_a_at) / Fold change /veh ANKRD19P (11752326_a_at) / RFU OR2T12 /// OR2T33 /// OR2T8 (11738714_s_at) / Fold change /veh OR2T12 /// OR2T33 /// OR2T8 (11738714_s_at) / RFU VCAN (11748164_a_at) / Fold change /veh VCAN (11748164_a_at) / RFU JSRP1 (11732532_at) / Fold change /veh JSRP1 (11732532_at) / RFU KRTAP10-11 (11738290_x_at) / Fold change /veh KRTAP10-11 (11738290_x_at) / RFU MYO3A (11730013_a_at) / Fold change /veh MYO3A (11730013_a_at) / RFU EBF3 (11725865_a_at) / Fold change /veh EBF3 (11725865_a_at) / RFU CAMK2N1 (11719241_x_at) / Fold change /veh CAMK2N1 (11719241_x_at) / RFU C5orf56 (11738088_a_at) / Fold change /veh C5orf56 (11738088_a_at) / RFU OLFML3 (11715873_a_at) / Fold change /veh OLFML3 (11715873_a_at) / RFU LOC100653217 /// NTM (11731650_a_at) / Fold change /veh LOC100653217 /// NTM (11731650_a_at) / RFU MAPK11 (11762145_a_at) / Fold change /veh MAPK11 (11762145_a_at) / RFU FIZ1 (11724087_x_at) / Fold change /veh FIZ1 (11724087_x_at) / RFU OASL (11726364_x_at) / Fold change /veh OASL (11726364_x_at) / RFU SOX15 (11748057_x_at) / Fold change /veh SOX15 (11748057_x_at) / RFU CD79A (11719716_a_at) / Fold change /veh CD79A (11719716_a_at) / RFU HIST1H1D (11736915_at) / Fold change /veh HIST1H1D (11736915_at) / RFU CASKIN2 (11723855_a_at) / Fold change /veh CASKIN2 (11723855_a_at) / RFU LOC730098 (11760151_x_at) / Fold change /veh LOC730098 (11760151_x_at) / RFU OR4N2 (11742367_at) / Fold change /veh OR4N2 (11742367_at) / RFU PRRT2 (11749266_a_at) / Fold change /veh PRRT2 (11749266_a_at) / RFU SNX32 (11753110_a_at) / Fold change /veh SNX32 (11753110_a_at) / RFU CDHR5 (11726645_a_at) / Fold change /veh CDHR5 (11726645_a_at) / RFU RCAN1 (11760418_a_at) / Fold change /veh RCAN1 (11760418_a_at) / RFU FAM167A (11723789_a_at) / Fold change /veh FAM167A (11723789_a_at) / RFU FAM26E (11764081_at) / Fold change /veh FAM26E (11764081_at) / RFU ISYNA1 (11749810_s_at) / Fold change /veh ISYNA1 (11749810_s_at) / RFU ACY1 (11761880_at) / Fold change /veh ACY1 (11761880_at) / RFU 11764098_at / Fold change /veh 11764098_at / RFU SAMD14 (11745864_x_at) / Fold change /veh SAMD14 (11745864_x_at) / RFU NPB (11741838_a_at) / Fold change /veh NPB (11741838_a_at) / RFU TMPRSS6 (11731388_a_at) / Fold change /veh TMPRSS6 (11731388_a_at) / RFU KRTAP10-2 (11738614_at) / Fold change /veh KRTAP10-2 (11738614_at) / RFU ARHGAP8 /// PRR5-ARHGAP8 (11727945_x_at) / Fold change /veh ARHGAP8 /// PRR5-ARHGAP8 (11727945_x_at) / RFU KRTAP5-7 /// NADSYN1 (11734609_at) / Fold change /veh KRTAP5-7 /// NADSYN1 (11734609_at) / RFU RASL12 (11751679_a_at) / Fold change /veh RASL12 (11751679_a_at) / RFU CDKN2B (11736163_a_at) / Fold change /veh CDKN2B (11736163_a_at) / RFU PRF1 (11729649_at) / Fold change /veh PRF1 (11729649_at) / RFU, ZNF638 /// ZNF638-IT1 / Fold change vs veh, ZNF638 /// ZNF638-IT1 / RFU, PANK3 / Fold change vs veh, PANK3 / RFU, SH3YL1 / Fold change vs veh, SH3YL1 / RFU, ZEB2 / Fold change vs veh, ZEB2 / RFU, NRIP1 / Fold change vs veh, NRIP1 / RFU, PTTG1IP / Fold change vs veh, PTTG1IP / RFU, CAPN2 / Fold change vs veh, CAPN2 / RFU, MED14 / Fold change vs veh, MED14 / RFU, SNORA58 / Fold change vs veh, SNORA58 / RFU, C1orf63 / Fold change vs veh, C1orf63 / RFU, LRRFIP1 / Fold change vs veh, LRRFIP1 / RFU, NDUFAF7 / Fold change vs veh, NDUFAF7 / RFU, SLC12A2 / Fold change vs veh, SLC12A2 / RFU, IBTK / Fold change vs veh, IBTK / RFU, ESF1 / Fold change vs veh, ESF1 / Fold change vs veh, TMEM50B / RFU, TAOK1 / Fold change vs veh, TAOK1 / RFU, ACBD3 / Fold change vs veh, ACBD3 / RFU, TMA16 / Fold change vs veh, TMA16 / RFU, RWDD3 / Fold change vs veh, RWDD3 / RFU, BCAT1 / Fold change vs veh, BCAT1 / RFU, EDEM3 / Fold change vs veh, EDEM3 / RFU, TMEM33 / Fold change vs veh, TMEM33 / RFU, WDR75 / Fold change vs veh, WDR75 / RFU, AHCTF1 / Fold change vs veh, AHCTF1 / RFU, TFRC / Fold change vs veh, TFRC / RFU, ZDHHC17 / Fold change vs veh, ZDHHC17 / RFU, NOM1 / Fold change vs veh, NOM1 / RFU, ARL8B / Fold change vs veh, ARL8B / RFU, ZBTB11 / Fold change vs veh, ZBTB11 / RFU, TAMM41 / Fold change vs veh, TAMM41 / RFU, KIAA1704 /// LOC100996395 / Fold change vs veh, KIAA1704 /// LOC100996395 / RFU, ING1 / Fold change vs veh, ING1 / RFU, TRMT61B / Fold change vs veh, TRMT61B / RFU, FUBP3 / Fold change vs veh, FUBP3 / RFU, TP53 / Fold change vs veh, TP53 / RFU, TNKS2 / Fold change vs veh, TNKS2 / RFU, ZFP14 / Fold change vs veh, ZFP14 / RFU, ACTR2 / Fold change vs veh, ACTR2 / RFU, PPP3R1 / Fold change vs veh, PPP3R1 / RFU, PIK3R1 / Fold change vs veh, PIK3R1 / RFU, HNRNPA1 / Fold change vs veh, HNRNPA1 / RFU, RNF170 / Fold change vs veh, RNF170 / RFU, ZNF28 / Fold change vs veh, ZNF28 / RFU, RNGTT / Fold change vs veh, RNGTT / RFU, OGT / Fold change vs veh, OGT / RFU, BRD1 / Fold change vs veh, BRD1 / RFU, MARS / Fold change vs veh, MARS / RFU, ZNF655 / Fold change vs veh, ZNF655 / RFU, FAHD1 / Fold change vs veh, FAHD1 / RFU, BDP1 / Fold change vs veh, BDP1 / RFU, LRRCC1 / Fold change vs veh, LRRCC1 / RFU, ARID1A / Fold change vs veh, ARID1A / RFU, ZNF146 / Fold change vs veh, ZNF146 / RFU, ZNF330 / Fold change vs veh, ZNF330 / RFU, GPN3 / Fold change vs veh, GPN3 / RFU, C9orf123 / Fold change vs veh, C9orf123 / RFU, N4BP2L2 / Fold change vs veh, N4BP2L2 / RFU, ARFIP1 / Fold change vs veh, ARFIP1 / RFU, FAM179B / Fold change vs veh, FAM179B / RFU, BCL10 / Fold change vs veh, BCL10 / RFU, UHRF1BP1L / Fold change vs veh, UHRF1BP1L / RFU, BET1 / Fold change vs veh, BET1 / RFU, CNOT2 / Fold change vs veh, CNOT2 / RFU, ZNF268 / Fold change vs veh, ZNF268 / Fold change vs veh, ZNF507 / RFU, DGCR2 / Fold change vs veh, DGCR2 / RFU, WDSUB1 / Fold change vs veh, WDSUB1 / Fold change vs veh, HSP90B1 /// MIR3652 / RFU, ADSS / Fold change vs veh, ADSS / RFU, GK / Fold change vs veh, GK / RFU, ZNF148 / Fold change vs veh, ZNF148 / RFU, TAF9 / Fold change vs veh, TAF9 / RFU, SLC1A5 / Fold change vs veh, SLC1A5 / RFU, SLMO2 / Fold change vs veh, SLMO2 / RFU, ABCC4 / Fold change vs veh, ABCC4 / RFU, LOC101060439 /// RAP1B / Fold change vs veh, LOC101060439 /// RAP1B / RFU, RFX7 / Fold change vs veh, RFX7 / RFU, GTPBP10 / Fold change vs veh, GTPBP10 / RFU, CNEP1R1 / Fold change vs veh, CNEP1R1 / RFU, BIVM-ERCC5 /// ERCC5 / Fold change vs veh, BIVM-ERCC5 /// ERCC5 / RFU, ILF3 / Fold change vs veh, ILF3 / RFU 11762660_at / Fold change /veh 11762660_at / RFU VCAN (11757783_s_at) / Fold change /veh VCAN (11757783_s_at) / RFU DDX43 (11728927_at) / Fold change /veh DDX43 (11728927_at) / RFU KRT8 (11758188_x_at) / Fold change /veh KRT8 (11758188_x_at) / RFU NKD1 (11759106_at) / Fold change /veh NKD1 (11759106_at) / RFU SRD5A1 (11742802_a_at) / Fold change /veh SRD5A1 (11742802_a_at) / RFU TPSAB1 /// TPSB2 (11721975_s_at) / Fold change /veh TPSAB1 /// TPSB2 (11721975_s_at) / RFU GSTM3 (11746129_a_at) / Fold change /veh GSTM3 (11746129_a_at) / RFU IL23R (11737362_x_at) / Fold change /veh IL23R (11737362_x_at) / RFU TMEM51 (11727254_a_at) / Fold change /veh TMEM51 (11727254_a_at) / RFU PIWIL2 (11732686_x_at) / Fold change /veh PIWIL2 (11732686_x_at) / RFU ORM1 (11744905_x_at) / Fold change /veh ORM1 (11744905_x_at) / RFU CCDC152 (11743942_at) / Fold change /veh CCDC152 (11743942_at) / RFU ECM1 (11717891_a_at) / Fold change /veh ECM1 (11717891_a_at) / RFU IL23R (11748794_a_at) / Fold change /veh IL23R (11748794_a_at) / RFU TNFAIP8L3 (11732012_x_at) / Fold change /veh TNFAIP8L3 (11732012_x_at) / RFU MBOAT4 (11741988_at) / Fold change /veh MBOAT4 (11741988_at) / RFU 11764193_at / Fold change /veh 11764193_at / RFU TMEM53 (11763286_at) / Fold change /veh TMEM53 (11763286_at) / RFU MAGEB2 (11727129_at) / Fold change /veh MAGEB2 (11727129_at) / RFU TMEM200A (11744735_a_at) / Fold change /veh TMEM200A (11744735_a_at) / RFU CCDC152 (11751479_a_at) / Fold change /veh CCDC152 (11751479_a_at) / RFU FAM211A (11726209_a_at) / Fold change /veh FAM211A (11726209_a_at) / RFU RGS16 (11746705_a_at) / Fold change /veh RGS16 (11746705_a_at) / RFU VCAN (11755009_s_at) / Fold change /veh VCAN (11755009_s_at) / RFU RHOB (11743442_s_at) / Fold change /veh RHOB (11743442_s_at) / RFU RGS16 (11720943_a_at) / Fold change /veh RGS16 (11720943_a_at) / RFU RGS16 (11720944_at) / Fold change /veh RGS16 (11720944_at) / RFU, VPS4B / Fold change vs veh, VPS4B / RFU, CREB1 / Fold change vs veh, CREB1 / RFU, DNAJC13 / Fold change vs veh, DNAJC13 / RFU, GNAQ / Fold change vs veh, GNAQ / RFU, CDK5R1 / Fold change vs veh, CDK5R1 / RFU, ZRANB3 / Fold change vs veh, ZRANB3 / RFU, CUL4A / Fold change vs veh, CUL4A / RFU, CCNY / Fold change vs veh, CCNY / RFU, UFL1 / Fold change vs veh, UFL1 / RFU, COG3 / Fold change vs veh, COG3 / RFU, DIAPH2 / Fold change vs veh, DIAPH2 / RFU, SKA2 / Fold change vs veh, SKA2 / RFU, AFF3 / Fold change vs veh, AFF3 / RFU, LMF1 / Fold change vs veh, LMF1 / RFU, IPO11 / Fold change vs veh, IPO11 / RFU, DFFB / Fold change vs veh, DFFB / RFU, FOXP1 / Fold change vs veh, FOXP1 / RFU, CARD8 / Fold change vs veh, CARD8 / RFU, STRN3 / Fold change vs veh, STRN3 / RFU, ADK / Fold change vs veh, ADK / RFU, RASSF2 / Fold change vs veh, RASSF2 / RFU, WIPF1 / Fold change vs veh, WIPF1 / RFU, LARP1B / Fold change vs veh, LARP1B / RFU, RASA1 / Fold change vs veh, RASA1 / RFU, RB1 / Fold change vs veh, RB1 / RFU, PPFIA1 / Fold change vs veh, PPFIA1 / RFU, MAT2A / Fold change vs veh, MAT2A / RFU, CCT5 / Fold change vs veh, CCT5 / RFU, WDR92 / Fold change vs veh, WDR92 / RFU, CUX1 / Fold change vs veh, CUX1 / RFU, TTC7A / Fold change vs veh, TTC7A / RFU, TMEM135 / Fold change vs veh, TMEM135 / RFU, DEPTOR / Fold change vs veh, DEPTOR / RFU, CPM / Fold change vs veh, CPM / RFU, DNAJB6 / Fold change vs veh, DNAJB6 / RFU, CACNA2D3 / Fold change vs veh, CACNA2D3 / RFU, DTX4 / Fold change vs veh, DTX4 / RFU, TFCP2 / Fold change vs veh, TFCP2 / RFU, GMCL1 /// GMCL1P1 / Fold change vs veh, GMCL1 /// GMCL1P1 / RFU, AEBP2 / Fold change vs veh, AEBP2 / RFU, SNHG1 /// SNORD22 /// SNORD25 /// SNORD26 /// SNORD27 /// SNORD28 /// SNORD29 /// SNORD31 / Fold change vs veh, SNHG1 /// SNORD22 /// SNORD25 /// SNORD26 /// SNORD27 /// SNORD28 /// SNORD29 /// SNORD31 / Fold change (Aza/veh), C12orf56 (ProbeSet 11735607_a_at) / Fold change (ACY-1035/veh), C12orf56 (ProbeSet 11735607_a_at) / Fold change (Aza/veh), FGFR1OP (ProbeSet 11751329_s_at) / Fold change (ACY-1035/veh), FGFR1OP (ProbeSet 11751329_s_at) / Fold change (Aza/veh), VPS36 (ProbeSet 11739960_a_at) / Fold change (ACY-1035/veh), VPS36 (ProbeSet 11739960_a_at) / RFU SYPL1 (11715823_x_at) / Fold change /veh SYPL1 (11715823_x_at) / RFU IGFBP7 (11715501_s_at) / Fold change /veh IGFBP7 (11715501_s_at) / RFU REEP3 (11722064_at) / Fold change /veh REEP3 (11722064_at) / RFU IGLL1 (11728026_x_at) / Fold change /veh IGLL1 (11728026_x_at): dose or concentration left out as unconfirmed
Settings: ProbeSet 11717914_a_at; LIST B

## Nc1ccc(-c2cccs2)cc1NC(=O)c1ccc2c(c1)cc(C1CC1)n2CCN1CCOCC1 [ACY-1035]
  Fold change vs veh, BIVM-ERCC5 /// ERCC5: 1.00
